Columns and labels:
B-Raf = B-Raf (Homo sapiens, UniProt P15056); test: B-Raf biochemical kinase inhibition (AlphaScreen, biotin-MEK1 substrate); settings: 100 μM ATP
Method in brief: (§1)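 IC50 derived from AlphaScreen signal plotted against compound concentration. Final ATP 100 μM; 3 h incubation at room temperature. Eight-point 3-fold dilution series prepared from a 0.1 mM DMSO stock.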

B-Raf V600E = B-Raf V600E (Homo sapiens, UniProt P15056, V600E); test: B-Raf V600E biochemical kinase inhibition (AlphaScreen, biotin-MEK1 substrate); settings: 100 μM ATP
Method in brief: as §1

[1] = Relative solubility by turbidity in aqueous buffers of varying pH; assay type: physicochemical; settings: for turbidity threshold (L, M, H) 7.4: HEPES pH 7.4; for turbidity threshold (L, M, H) 4.5: SIF pH 4.5; for turbidity threshold (L, M, H) 6.8: SIF pH 6.8; for turbidity threshold (L, M, H) 1.4: buffer pH 1.4 (SGF)
Method in brief: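 Turbidity endpoint: concentration where optical density at 490, 535 and 650 nm exceeds 0.01, three-wavelength average used. Buffers at pH 1.5, 4.5, 6.8 and 7.4; DMSO serial dilutions of 25 mM stock spiked 1 μL into 99 μL buffer. Low <31.3, moderate 31.3–250, high >250 μM.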

CYP1A2 = biological target: T1, CYP1A2 (Homo sapiens, UniProt P05177); test: CYP1A2 inhibition (fluorescent substrate); assay type: in vitro ADME; settings: CYP1A2, CEC substrate; read-out: Cyp IC50 1A2
T1 sequence (P05177 1-516): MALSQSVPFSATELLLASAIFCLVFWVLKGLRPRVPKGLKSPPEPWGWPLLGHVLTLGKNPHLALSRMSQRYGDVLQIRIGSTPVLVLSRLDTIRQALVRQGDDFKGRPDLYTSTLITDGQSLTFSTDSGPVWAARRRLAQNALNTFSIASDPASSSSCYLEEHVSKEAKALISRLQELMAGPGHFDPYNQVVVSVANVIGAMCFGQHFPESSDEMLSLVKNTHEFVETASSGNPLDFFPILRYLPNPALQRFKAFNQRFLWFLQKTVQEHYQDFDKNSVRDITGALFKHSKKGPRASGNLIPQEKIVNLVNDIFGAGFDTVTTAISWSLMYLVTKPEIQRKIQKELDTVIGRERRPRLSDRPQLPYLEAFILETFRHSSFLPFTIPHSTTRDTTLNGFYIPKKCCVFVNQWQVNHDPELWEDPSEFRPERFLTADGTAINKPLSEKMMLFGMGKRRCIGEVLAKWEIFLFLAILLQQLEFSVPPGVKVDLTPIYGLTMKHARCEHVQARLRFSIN
Method in brief: (§2)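 IC50 values come from plotting product fluorescence against compound concentration; inhibition lowers formation of the fluorescent metabolite. Ten-point twofold dilutions in co-factor mix were held 10 minutes at 37 °C before the enzyme reaction, also run at 37 °C.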

CYP2C19 = CYP2C19 (Homo sapiens, UniProt P33261); test: CYP2C19 inhibition (fluorescent substrate); assay type: in vitro ADME; settings: CYP2C19, CEC substrate; read-out: Cyp IC50 2C19
Method in brief: as §2

CYP3A4(BFC) = CYP3A4(BFC) (Homo sapiens, UniProt P08684); test: CYP3A4(BFC) inhibition (fluorescent substrate); assay type: in vitro ADME; settings: read-out: Cyp IC50 3A4(BFC)
Method in brief: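 Inhibition was followed as loss of fluorescent metabolite from a known substrate, with compound in co-factor mix as a 10-point 1:1 serial dilution (100 mM DMSO stock).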

Chain of CYP3A4(BFC) (P08684 whole entry): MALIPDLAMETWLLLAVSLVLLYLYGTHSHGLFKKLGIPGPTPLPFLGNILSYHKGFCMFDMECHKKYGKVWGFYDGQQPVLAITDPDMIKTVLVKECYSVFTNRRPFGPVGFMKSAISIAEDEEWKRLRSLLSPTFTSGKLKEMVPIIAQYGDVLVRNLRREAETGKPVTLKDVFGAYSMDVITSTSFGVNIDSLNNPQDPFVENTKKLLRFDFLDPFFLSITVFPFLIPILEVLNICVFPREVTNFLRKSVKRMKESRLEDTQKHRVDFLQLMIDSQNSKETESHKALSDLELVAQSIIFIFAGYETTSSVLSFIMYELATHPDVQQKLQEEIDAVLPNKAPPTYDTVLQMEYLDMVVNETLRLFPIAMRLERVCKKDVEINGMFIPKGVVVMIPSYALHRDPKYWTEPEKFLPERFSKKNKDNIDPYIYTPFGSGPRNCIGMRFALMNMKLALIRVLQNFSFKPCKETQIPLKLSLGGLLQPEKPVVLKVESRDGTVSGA
Chain of B-Raf (P15056 whole entry): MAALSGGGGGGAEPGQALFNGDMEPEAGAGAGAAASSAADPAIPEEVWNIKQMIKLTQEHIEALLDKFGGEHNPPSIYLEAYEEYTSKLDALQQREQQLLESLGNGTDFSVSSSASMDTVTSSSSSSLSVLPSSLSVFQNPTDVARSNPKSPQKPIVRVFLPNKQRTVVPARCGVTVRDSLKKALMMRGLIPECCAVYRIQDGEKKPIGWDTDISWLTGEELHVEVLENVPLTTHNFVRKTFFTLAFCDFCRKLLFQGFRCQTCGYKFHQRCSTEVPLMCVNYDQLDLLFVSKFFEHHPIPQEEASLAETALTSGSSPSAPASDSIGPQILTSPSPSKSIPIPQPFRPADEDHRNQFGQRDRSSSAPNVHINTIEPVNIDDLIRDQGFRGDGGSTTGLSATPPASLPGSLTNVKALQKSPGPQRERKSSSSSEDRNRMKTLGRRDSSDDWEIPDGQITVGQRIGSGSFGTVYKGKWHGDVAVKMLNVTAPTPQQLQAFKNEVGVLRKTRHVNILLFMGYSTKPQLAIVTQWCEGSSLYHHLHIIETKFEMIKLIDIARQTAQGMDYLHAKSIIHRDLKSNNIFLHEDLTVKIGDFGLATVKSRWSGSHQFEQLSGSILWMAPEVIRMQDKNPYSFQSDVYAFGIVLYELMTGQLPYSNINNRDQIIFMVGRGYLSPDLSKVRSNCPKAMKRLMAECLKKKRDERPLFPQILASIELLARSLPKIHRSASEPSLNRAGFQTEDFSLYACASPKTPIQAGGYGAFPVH
Chain of B-Raf V600E (P15056 whole entry V600E): as the sequence (P15056 whole entry) above, with V600E counted along it
Chain of CYP2C19 (P33261 whole entry): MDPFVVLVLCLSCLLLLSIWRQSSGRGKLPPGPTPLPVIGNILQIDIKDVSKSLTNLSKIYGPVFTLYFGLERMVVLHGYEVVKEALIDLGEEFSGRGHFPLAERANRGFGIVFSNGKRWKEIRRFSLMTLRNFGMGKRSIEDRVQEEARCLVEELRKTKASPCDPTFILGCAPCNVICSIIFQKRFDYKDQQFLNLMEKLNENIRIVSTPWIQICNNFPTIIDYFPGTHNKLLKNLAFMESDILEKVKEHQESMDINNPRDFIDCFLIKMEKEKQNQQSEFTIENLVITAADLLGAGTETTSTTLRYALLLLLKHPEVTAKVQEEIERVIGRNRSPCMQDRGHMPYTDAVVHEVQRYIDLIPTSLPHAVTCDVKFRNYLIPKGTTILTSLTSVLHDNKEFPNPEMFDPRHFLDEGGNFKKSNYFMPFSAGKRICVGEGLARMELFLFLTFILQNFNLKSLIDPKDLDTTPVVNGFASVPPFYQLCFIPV

Compound	IC50 (B-Raf) [µM]	IC50 (B-Raf V600E) [µM]	IC50 (CYP1A2) [µM]	IC50 (CYP2C19) [µM]	IC50 (CYP3A4(BFC)) [µM]	turbidity threshold (L, M, H) 7.4 [1]	turbidity threshold (L, M, H) 4.5 [1]	turbidity threshold (L, M, H) 6.8 [1]	turbidity threshold (L, M, H) 1.4 [1]
O=C(c1c(F)ccc(NS(=O)(=O)c2cc(F)ccc2F)c1F)c1c[nH]c2nccc(Cl)c12 [P-2018, N-[3-(4-Chloro-1H-pyrrolo[2,3-b]pyridine-3-carbonyl)-2,4-difluoro-phenyl]-2,5-difluoro-benzenesulfonamide]	< 0.01	< 0.01	> 10	> 10	5 to 10	M (moderate solubility if the threshold concentration is 31.3 μM to 250 μM)	M (moderate solubility if the threshold concentration is 31.3 μM to 250 μM)	M (moderate solubility if the threshold concentration is 31.3 μM to 250 μM)	L (low solubility if the threshold concentration is <31.3 04)
O=C(c1c(F)ccc(NS(=O)(=O)c2cccc(F)c2)c1F)c1c[nH]c2nccc(Cl)c12 [P-2019, N-[3-(4-Chloro-1H-pyrrolo[2,3-b]pyridine-3-carbonyl)-2,4-difluoro-phenyl]-3-fluoro-benzenesulfonamide]	< 0.01	< 0.01	> 10	> 10	5 to 10	M (moderate solubility if the threshold concentration is 31.3 μM to 250 μM)	M (moderate solubility if the threshold concentration is 31.3 μM to 250 μM)	M (moderate solubility if the threshold concentration is 31.3 μM to 250 μM)	L (low solubility if the threshold concentration is <31.3 04)
N#Cc1ccnc2[nH]cc(C(=O)c3c(F)ccc(NS(=O)(=O)c4ccccc4F)c3F)c12 [P-2020, N-[3-(4-Cyano-1H-pyrrolo[2,3-b]pyridine-3-carbonyl)-2,4-difluoro-phenyl]-2-fluoro-benzenesulfonamide]	< 0.01	< 0.01	> 10	> 10	> 10	M (moderate solubility if the threshold concentration is 31.3 μM to 250 μM)	M (moderate solubility if the threshold concentration is 31.3 μM to 250 μM)	M (moderate solubility if the threshold concentration is 31.3 μM to 250 μM)	M (moderate solubility if the threshold concentration is 31.3 μM to 250 μM)
COc1ccnc2[nH]cc(C(=O)c3c(F)ccc(NS(=O)(=O)c4ccccc4F)c3F)c12 [P-2021, N-[2,4-Difluoro-3-(4-methoxy-1H-pyrrolo[2,3-b]pyridine-3-carbonyl)-phenyl]-2-fluoro-benzenesulfonamide]	< 0.1	< 0.1	> 10	> 10	> 10	M (moderate solubility if the threshold concentration is 31.3 μM to 250 μM)	M (moderate solubility if the threshold concentration is 31.3 μM to 250 μM)	M (moderate solubility if the threshold concentration is 31.3 μM to 250 μM)	H (high solubility if the threshold concentration is >250 μM)
COc1ccnc2[nH]cc(C(=O)c3c(F)ccc(NS(=O)(=O)c4cccc(F)c4)c3F)c12 [P-2023, N-[2,4-Difluoro-3-(4-methoxy-1H-pyrrolo[2,3-b]pyridine-3-carbonyl)-phenyl]-3-fluoro-benzenesulfonamide]	< 0.01	< 0.01	> 10	> 10	5 to 10	M (moderate solubility if the threshold concentration is 31.3 μM to 250 μM)	M (moderate solubility if the threshold concentration is 31.3 μM to 250 μM)	M (moderate solubility if the threshold concentration is 31.3 μM to 250 μM)	H (high solubility if the threshold concentration is >250 μM)
Cc1cnc2[nH]cc(C(=O)c3c(F)ccc(NS(=O)(=O)c4c(F)cccc4F)c3F)c2c1 [P-2024, N-[2,4-Difluoro-3-(5-methyl-1H-pyrrolo[2,3-b]pyridine-3-carbonyl)-phenyl]-2,6-difluoro-benzenesulfonamide]	< 0.1	< 0.1	> 10	> 10	> 10	M (moderate solubility if the threshold concentration is 31.3 μM to 250 μM)	L (low solubility if the threshold concentration is <31.3 04)	M (moderate solubility if the threshold concentration is 31.3 μM to 250 μM)	M (moderate solubility if the threshold concentration is 31.3 μM to 250 μM)

Further lines, with some results ahead:

IC50 (B-Raf) [µM]	IC50 (B-Raf V600E) [µM]	IC50 (CYP1A2) [µM]	IC50 (CYP2C19) [µM]	IC50 (CYP3A4(BFC)) [µM]	Compound	turbidity threshold (L, M, H) 7.4 [1]	turbidity threshold (L, M, H) 4.5 [1]	turbidity threshold (L, M, H) 6.8 [1]	turbidity threshold (L, M, H) 1.4 [1]
< 0.01	< 0.01	> 10	> 10	> 10	COc1ncc(-c2cnc3[nH]cc(C(=O)c4c(F)ccc(NS(=O)(=O)c5ccccc5F)c4F)c3c2)cn1 [P-2041, N-{2,4-Difluoro-3-[5-(2-methoxy-pyrimidin-5-yl)-1H-pyrrolo[2,3-b]pyridine-3-carbonyl]-phenyl}-2-fluoro-benzenesulfonamide]	L (low solubility if the threshold concentration is <31.3 04)	L (low solubility if the threshold concentration is <31.3 04)	L (low solubility if the threshold concentration is <31.3 04)	L (low solubility if the threshold concentration is <31.3 04)
< 0.01	< 0.01	> 10	> 10	> 10	COc1ncc(-c2cnc3[nH]cc(C(=O)c4c(F)ccc(NS(=O)(=O)c5cc(F)ccc5F)c4F)c3c2)cn1 [P-2042, N-{2,4-Difluoro-3-[5-(2-methoxy-pyrimidin-5-yl)-1H-pyrrolo[2,3-b]pyridine-3-carbonyl]-phenyl}-2,5-difluoro-benzenesulfonamide]	L (low solubility if the threshold concentration is <31.3 04)	L (low solubility if the threshold concentration is <31.3 04)	L (low solubility if the threshold concentration is <31.3 04)	L (low solubility if the threshold concentration is <31.3 04)
< 0.01	< 0.01	> 10	> 10	> 10	COc1ncc(-c2cnc3[nH]cc(C(=O)c4c(F)ccc(NS(=O)(=O)c5c(F)cccc5F)c4F)c3c2)cn1 [P-2043, N-{2,4-Difluoro-3-[5-(2-methoxy-pyrimidin-5-yl)-1H-pyrrolo[2,3-b]pyridine-3-carbonyl]-phenyl}-2,6-difluoro-benzenesulfonamide]	M (moderate solubility if the threshold concentration is 31.3 μM to 250 μM)	L (low solubility if the threshold concentration is <31.3 04)	L (low solubility if the threshold concentration is <31.3 04)	L (low solubility if the threshold concentration is <31.3 04)
< 0.01	< 0.1	> 10	> 10	> 10	COc1ncc(-c2cnc3[nH]cc(C(=O)c4c(F)ccc(NS(=O)(=O)c5cccc(F)c5)c4F)c3c2)cn1 [P-2045, N-{2,4-Difluoro-3-[5-(2-methoxy-pyrimidin-5-yl)-1H-pyrrolo[2,3-b]pyridine-3-carbonyl]-phenyl}-3-fluoro-benzenesulfonamide]	M (moderate solubility if the threshold concentration is 31.3 μM to 250 μM)	L (low solubility if the threshold concentration is <31.3 04)	L (low solubility if the threshold concentration is <31.3 04)	L (low solubility if the threshold concentration is <31.3 04)

Reference: patent publication US8198273B2, “Compounds and methods for kinase modulation, and indications therefor” (Plexxikon Inc., priority 2009, dated 2012)
